Experimental data: patent publication US4684664A, “Derivatives of β-(4-isocyano-1,2,3,4-diepoxycyclopentyl) acrylic acid” (Kureha Kagaku Kogyo Kabushiki Kaisha, priority 1984, dated 1987)
≈ marks a conversion by molar mass, not a printed value.

How the values were obtained:
Assay type in all cases: cell-based
[1] = tested on: Streptococcus pyogenes IFO 3340; test: Antibacterial activity, agar-dilution MIC, organism No. 26; conditions: Streptococcus pyogenes, IFO3340; Organism No. 26, bouillon-agar; read-out: Minimum Inhibitory Concentration
Procedure, shortened: (§1)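 Minimum inhibitory concentration determined on solid bouillon agar by the agar-dilution technique, with values stated as μg/ml.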

[2] = tested on: Enterobacter aerogenes ATCC 13048; test: Antibacterial activity, agar-dilution MIC, organism No. 23; conditions: Klebsiella aerogenes, ATCC13048; Organism No. 23, bouillon-agar; read-out: Minimum Inhibitory Concentration
Procedure, shortened: as §1

[3] = tested on: Salmonella enteritidis G 14; test: Antibacterial activity, agar-dilution MIC, organism No. 12; conditions: Salmonella enterica, ENTERITIDIS; Organism No. 12, bouillon-agar; read-out: Minimum Inhibitory Concentration
Procedure, shortened: as §1

[4] = tested on: Proteus vulgaris OX-19; test: Antibacterial activity, agar-dilution MIC, organism No. 20; conditions: Proteus vulgaris, OX19; Organism No. 20, bouillon-agar; read-out: Minimum Inhibitory Concentration
Procedure, shortened: as §1

[5] = tested on: Proteus morganii IFO 3848; test: Antibacterial activity, agar-dilution MIC, organism No. 18; conditions: Morganella morganii, IFO3848; Organism No. 18, bouillon-agar; read-out: Minimum Inhibitory Concentration
Procedure, shortened: as §1

[6] = tested on: Escherichia coli NIHJ-JC-2; test: Antibacterial activity, agar-dilution MIC, organism No. 5; conditions: Escherichia coli, NIHJJC2; Organism No. 5, bouillon-agar; read-out: Minimum Inhibitory Concentration
Procedure, shortened: as §1

[7] = tested on: Escherichia coli K12 C600 IAM 1264; test: Antibacterial activity, agar-dilution MIC, organism No. 6; conditions: Escherichia coli, IAM1264; Organism No. 6, bouillon-agar; read-out: Minimum Inhibitory Concentration
Procedure, shortened: as §1

[8] = tested on: Proteus mirabilis IFO 3849; test: Antibacterial activity, agar-dilution MIC, organism No. 19; conditions: Proteus mirabilis, IFO3849; Organism No. 19, bouillon-agar; read-out: Minimum Inhibitory Concentration
Procedure, shortened: as §1

[9] = tested on: Salmonella typhimurium IID 971; test: Antibacterial activity, agar-dilution MIC, organism No. 8; conditions: Salmonella enterica; Organism No. 8, bouillon-agar; read-out: Minimum Inhibitory Concentration
Procedure, shortened: as §1

[10] = tested on: Staphylococcus aureus MS 353; test: Antibacterial activity, agar-dilution MIC, organism No. 3; conditions: Staphylococcus aureus, MS353; Organism No. 3, bouillon-agar; read-out: Minimum Inhibitory Concentration
Procedure, shortened: as §1

[11] = tested on: Proteus rettgeri IFO 3850; test: Antibacterial activity, agar-dilution MIC, organism No. 22; conditions: Providencia rettgeri, IFO3850; Organism No. 22, bouillon-agar; read-out: Minimum Inhibitory Concentration
Procedure, shortened: as §1

[12] = tested on: Staphylococcus aureus FDA 209PJc-1; test: Antibacterial activity, agar-dilution MIC, organism No. 1; conditions: Staphylococcus aureus, FDA209PJC1; Organism No. 1, bouillon-agar; read-out: Minimum Inhibitory Concentration
Procedure, shortened: as §1

[13] = tested on: Staphylococcus aureus Terajima; test: Antibacterial activity, agar-dilution MIC, organism No. 2; conditions: Staphylococcus aureus; Organism No. 2, bouillon-agar; read-out: Minimum Inhibitory Concentration
Procedure, shortened: as §1

[14] = tested on: Proteus vulgaris HX-19; test: Antibacterial activity, agar-dilution MIC, organism No. 21; conditions: Proteus vulgaris, HX19; Organism No. 21, bouillon-agar; read-out: Minimum Inhibitory Concentration
Procedure, shortened: as §1

[15] = tested on: Salmonella typhi 901; test: Antibacterial activity, agar-dilution MIC, organism No. 9; conditions: Salmonella enterica, TYPHI, read-out: Minimum Inhibitory Concentration
Procedure, shortened: as §1

[16] = tested on: Pseudomonas aeruginosa IFO 3445; test: Antibacterial activity, agar-dilution MIC, organism No. 15; conditions: Pseudomonas aeruginosa, IFO3445; Organism No. 15, bouillon-agar; read-out: Minimum Inhibitory Concentration
Procedure, shortened: as §1

[17] = tested on: Micrococcus luteus ATCC 9341; test: Antibacterial activity, agar-dilution MIC, organism No. 25; conditions: Micrococcus luteus, ATCC9341; Organism No. 25, bouillon-agar; read-out: Minimum Inhibitory Concentration
Procedure, shortened: as §1

[18] = tested on: Pseudomonas aeruginosa PAO 1; test: Antibacterial activity, agar-dilution MIC, organism No. 17; conditions: Pseudomonas aeruginosa, PAO1; Organism No. 17, bouillon-agar; read-out: Minimum Inhibitory Concentration
Procedure, shortened: as §1

[19] = tested on: Streptococcus pyogenes Cook; test: Antibacterial activity, agar-dilution MIC, organism No. 4; conditions: Streptococcus pyogenes; Organism No. 4, bouillon-agar; read-out: Minimum Inhibitory Concentration
Procedure, shortened: as §1

[20] = tested on: Serratia marcescens IAM 1184; test: Antibacterial activity, agar-dilution MIC, organism No. 13; conditions: Serratia marcescens, IAM1184; Organism No. 13, bouillon-agar; read-out: Minimum Inhibitory Concentration
From the text: Agar-dilution method was used for determination of the antibacterial activity and antifungal activity while using bouillon-agar culture medium, and the minimum inhibitory concentration of the specimen was expressed by μg/ml of the culture medium.

[21] = tested on: Candida albicans IAM 4905; test: Antifungal activity, agar-dilution MIC, organism No. 29; conditions: Candida albicans, IAM4905; Organism No. 29, bouillon-agar; read-out: Minimum Inhibitory Concentration
Procedure, shortened: as §1

[22] = tested on: Aspergillus niger IFO 6342; test: Antifungal activity, agar-dilution MIC, organism No. 30; conditions: Aspergillus niger, IFO6342; Organism No. 30, bouillon-agar; read-out: Minimum Inhibitory Concentration
Procedure, shortened: as §1

[23] = tested on: Salmonella paratyphi-A 1015; test: Antibacterial activity, agar-dilution MIC, organism No. 10; conditions: Salmonella enterica, PARATYPHI, read-out: Minimum Inhibitory Concentration
Procedure, shortened: as §1

[24] = tested on: Klebsiella pneumoniae PCI-602; test: Antibacterial activity, agar-dilution MIC, organism No. 7; conditions: Klebsiella pneumoniae, PCI602; Organism No. 7, bouillon-agar; read-out: Minimum Inhibitory Concentration
Procedure, shortened: as §1

[25] = tested on: Pseudomonas aeruginosa NCTC 10490; test: Antibacterial activity, agar-dilution MIC, organism No. 16; conditions: Pseudomonas aeruginosa, NCTC10490; Organism No. 16, bouillon-agar; read-out: Minimum Inhibitory Concentration
Procedure, shortened: as §1

[26] = tested on: Bacillus subtilis ATCC 6633; test: Antibacterial activity, agar-dilution MIC, organism No. 14; conditions: Bacillus subtilis, ATCC6633; Organism No. 14, bouillon-agar; read-out: Minimum Inhibitory Concentration
Procedure, shortened: as §1

[27] = tested on: Enterobacter cloacae 963; test: Antibacterial activity, agar-dilution MIC, organism No. 24; conditions: Enterobacter cloacae, 963; Organism No. 24, bouillon-agar; read-out: Minimum Inhibitory Concentration
Procedure, shortened: as §1

[28] = tested on: Salmonella shottmuelleri 8006; test: Antibacterial activity, agar-dilution MIC, organism No. 11; conditions: Salmonella, 8006; Organism No. 11, bouillon-agar; read-out: Minimum Inhibitory Concentration
Procedure, shortened: as §1

Question: What does the source list for [C-]#[N+]C12CC3(/C=C/C(=O)Nc4ccc(OCCC)cc4)OC3C1O2 (centres unmarked) [compound 73]?
Answer: MIC [1]: 1.56 mg/L (≈ 4.78 µM); MIC [2]: > 200 mg/L; MIC [3]: > 200 mg/L; MIC [4]: 1.56 mg/L (≈ 4.78 µM); MIC [5]: 12.5 mg/L (≈ 38.3 µM); MIC [6]: > 200 mg/L; MIC [7]: > 200 mg/L; MIC [8]: > 200 mg/L; MIC [9]: > 200 mg/L; MIC [10]: 1.56 mg/L (≈ 4.78 µM); MIC [11]: > 200 mg/L; MIC [12]: 0.78 mg/L (≈ 2.39 µM); MIC [13]: 1.56 mg/L (≈ 4.78 µM); MIC [14]: 0.78 mg/L (≈ 2.39 µM); MIC [15]: 50 mg/L (≈ 153 µM); MIC [16]: > 200 mg/L; MIC [17]: 1.56 mg/L (≈ 4.78 µM); MIC [18]: > 200 mg/L; MIC [19]: 100 mg/L (≈ 306 µM); MIC [20]: > 200 mg/L; MIC [21]: 12.5 mg/L (≈ 38.3 µM); MIC [22]: 12.5 mg/L (≈ 38.3 µM); MIC [23]: 0.39 mg/L (≈ 1.2 µM); MIC [24]: 1.56 mg/L (≈ 4.78 µM); MIC [25]: > 200 mg/L; MIC [26]: 12.5 mg/L (≈ 38.3 µM); MIC [27]: > 200 mg/L; MIC [28]: 1.56 mg/L (≈ 4.78 µM)

Question: How did the MIC [1] turn out when [C-]#[N+]C12CC3(/C=C/C(=O)Nc4ccc(OC(C)C)cc4)OC3C1O2 (centres unmarked) [compound 74] was run?
Answer: The MIC was 3.13 mg/L (≈ 9.59 µM).

Question: What about the MIC [2] of the same molecule?
Answer: The MIC was greater than 200 mg/L.

Question: And the MIC [3]?
Answer: Its MIC is 200 mg/L (≈ 613 µM).

Question: And the MIC [4]?
Answer: Its MIC is 1.56 mg/L (≈ 4.78 µM).

Question: And the MIC [5]?
Answer: The MIC was 6.25 mg/L (≈ 19.2 µM).

Question: What about the MIC [6] of the same molecule?
Answer: Its MIC is greater than 200 mg/L.

Question: And the MIC [7]?
Answer: The MIC was greater than 200 mg/L.

Question: What about the MIC [8] of the same molecule?
Answer: The MIC was greater than 200 mg/L.

Question: What about the MIC [9] of the same molecule?
Answer: The MIC was greater than 200 mg/L.

Question: And the MIC [10]?
Answer: Its MIC is 1.56 mg/L (≈ 4.78 µM).

Question: What about the MIC [11] of the same molecule?
Answer: The MIC was 100 mg/L (≈ 306 µM).

Question: What about the MIC [12] of the same molecule?
Answer: Its MIC is 0.78 mg/L (≈ 2.39 µM).

Question: What about the MIC [13] of the same molecule?
Answer: Its MIC is 6.25 mg/L (≈ 19.2 µM).

Question: And the MIC [14]?
Answer: Its MIC is 1.56 mg/L (≈ 4.78 µM).

Question: And the MIC [15]?
Answer: Its MIC is 12.5 mg/L (≈ 38.3 µM).

Question: What about the MIC [16] of the same molecule?
Answer: The MIC was greater than 200 mg/L.

Question: And the MIC [17]?
Answer: The MIC was 12.5 mg/L (≈ 38.3 µM).

Question: What about the MIC [18] of the same molecule?
Answer: The MIC was greater than 200 mg/L.

Question: What about the MIC [19] of the same molecule?
Answer: Its MIC is 100 mg/L (≈ 306 µM).

Question: What about the MIC [20] of the same molecule?
Answer: Its MIC is greater than 200 mg/L.

Question: And the MIC [21]?
Answer: Its MIC is 12.5 mg/L (≈ 38.3 µM).

Question: What about the MIC [22] of the same molecule?
Answer: Its MIC is 12.5 mg/L (≈ 38.3 µM).

Question: And the MIC [23]?
Answer: Its MIC is 1.56 mg/L (≈ 4.78 µM).

Question: And the MIC [24]?
Answer: Its MIC is 1.56 mg/L (≈ 4.78 µM).

Question: And the MIC [25]?
Answer: Its MIC is greater than 200 mg/L.

Question: What about the MIC [26] of the same molecule?
Answer: Its MIC is 6.25 mg/L (≈ 19.2 µM).

Question: And the MIC [27]?
Answer: Its MIC is greater than 200 mg/L.

Question: What about the MIC [28] of the same molecule?
Answer: The MIC was 3.13 mg/L (≈ 9.59 µM).

Question: What does the source list for [C-]#[N+]C12CC3(/C=C/C(=O)Nc4nc5ccccc5s4)OC3C1O2 (centres unmarked) [compound 70]?
Answer: MIC [2]: > 200 mg/L; MIC [3]: > 200 mg/L; MIC [4]: 1.56 mg/L (≈ 4.79 µM); MIC [5]: 6.25 mg/L (≈ 19.2 µM); MIC [6]: > 200 mg/L; MIC [7]: > 200 mg/L; MIC [8]: > 200 mg/L; MIC [9]: > 200 mg/L; MIC [10]: 0.39 mg/L (≈ 1.2 µM); MIC [11]: > 200 mg/L; MIC [12]: 0.39 mg/L (≈ 1.2 µM); MIC [13]: 0.78 mg/L (≈ 2.4 µM); MIC [14]: 1.56 mg/L (≈ 4.79 µM); MIC [15]: > 200 mg/L; MIC [16]: > 200 mg/L; MIC [17]: > 200 mg/L; MIC [18]: > 200 mg/L; MIC [19]: 1.56 mg/L (≈ 4.79 µM); MIC [20]: > 200 mg/L; MIC [21]: 1.56 mg/L (≈ 4.79 µM); MIC [22]: 6.25 mg/L (≈ 19.2 µM); MIC [23]: 3.13 mg/L (≈ 9.62 µM); MIC [24]: 1.56 mg/L (≈ 4.79 µM); MIC [25]: > 200 mg/L; MIC [26]: 3.13 mg/L (≈ 9.62 µM); MIC [27]: > 200 mg/L; MIC [28]: > 200 mg/L
